Type in all cases: biochemical
The test system of one test is Trypsin. As to the kind of experiment: Inhibition of trypsin, solid phase tubulin immunoassay (YL 1/2 antibody), Table I. The conditions noted are these: trypsin 0.25 μg/ml, 20 mM TRIS pH 7.4, 2 hours at 37° C.; inhibitor 0.01 to 10 μg/ml. The procedure: (§1) Covalent linkage of tubulin to the support
(§2) 0.150 ml of a freshly made phosfate buffered saline (PBS) solution (pH=7.3) containing 0.03 mg of bis(sulfo-succinidimyl)suberate (BS3, Pierce, Rockford, Ill.) are dispensed into each well of a cova-link 96 wells plate (Nunc). The solution is left in the wells at room temperature for 90 minutes, afterwards the wells are washed three times with PBS solution.
(§3) Afterwards, 0,150 ml of a PBS solution containing 5% glycine (v/v) and 0.75 μg of tubulin obtained according to Example 1 is added to each well. After 90 minutes at room temperature, the solution is removed and 0.3 ml of a 5% glycine PBS solution are added. After about 2 hours, the wells are washed with fresh PBS solution.
(§4) Determination of the anti-proteolytic activity
(§5) 0.15 ml of a solution containing a proteolytic activity and a known inhibitor (concentration from 0.01 to 10 μg/ml) are added to the wells treated according to Example 2 or Example 2a and incubated for 2 hours at 37° C.
(§6) The employed proteolytic enzymes are:
(§7) Serine class: trypsin (0.25 μg/ml), subtilisin (0.25 μg/ml), elastase (0.5 μg/ml) and cathepsin G (5 μg/ml), in a 20 mM solution of Tris-hydroxymethyl-aminomethanchloride (TRIS) (pH=7.4);
(§8) Table I reports the concentration of these inhibitors which determines a 50% inhibition of the above proteases.
(§9) After three rapid washing with PBS solution (pH=7.3), the inhibitory activity is determined as follows:
(§10) A YL 1/2 antibody solution (Amersham) diluted 1:1000 in PBS buffer is added to each well and incubated for 1 hour at room temperature. After three rapid washing with PBS solution, an anti-rat peroxydated antibody solution (Amersham) diluted 1:1000 in PBS buffer is added to each well and incubated for 1 hour at room temperature. After 10-15 minutes, the colour is developed with a 0.5 M citric acid solution (pH=5.5) containing 1 mg/ml of o-phenylendiamine. After 5-10 minutes, the reaction is stopped with H2 SO4 4 M. The colour is detected on a Titertek Multiscan MCC340-HK spectrophotometer reading the absorbance at 492 nm.

Another test concerns Subtilisin. As to the kind of experiment: Inhibition of subtilisin, solid phase tubulin immunoassay, Table I. The conditions noted are these: subtilisin 0.25 μg/ml, 20 mM TRIS pH 7.4, 2 hours at 37° C.; inhibitor 0.01 to 10 μg/ml. The procedure: as §1, §2, §3, §4, §5, §6, §7, §8, §9, §10
The target in a further test is Elastase. As to the kind of experiment: Inhibition of elastase, solid phase tubulin immunoassay, Table I. The following applies: elastase 0.5 μg/ml, 20 mM TRIS pH 7.4, 2 hours at 37° C.; inhibitor 0.01 to 10 μg/ml. The procedure:
as §1, §2, §3, §4, §5, §6, §7, §8, §9, §10

The target in a further test is T1, Cathepsin G (Homo sapiens, UniProt P08311).
T1 sequence (P08311 21-255): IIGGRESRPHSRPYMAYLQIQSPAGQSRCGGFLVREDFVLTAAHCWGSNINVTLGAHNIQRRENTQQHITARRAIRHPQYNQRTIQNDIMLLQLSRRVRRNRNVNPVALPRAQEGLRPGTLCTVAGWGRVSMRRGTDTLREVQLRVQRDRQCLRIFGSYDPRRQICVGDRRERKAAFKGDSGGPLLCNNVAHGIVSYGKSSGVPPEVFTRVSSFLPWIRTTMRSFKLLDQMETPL
As to the kind of experiment: Inhibition of cathepsin G, solid phase tubulin immunoassay, Table I. The protocol: as §1, §2, §3, §4, §5, §6, §7, §8, §9, §10

In another test the target is Pepsin (Sus scrofa, UniProt P00791). As to the kind of experiment: Inhibition of pepsin, solid phase tubulin immunoassay, Table I. The procedure:
as §1, §2, §3, §4, §5, §6
Aspartic class: pepsin (5 μg/ml), cathepsin D (5 μg/ml), renin (5 μg/ml) and Hiv-1 protease (5 μg/ml), in a 50 mM acetate buffer solution (pH=5.5) containing 0.01% Tween 20 (Pierce);
as §9, §10

A further test deals with Cathepsin D (Homo sapiens, UniProt P07339). As to the kind of experiment: Inhibition of cathepsin D, solid phase tubulin immunoassay, Table I. The procedure:
as §1, §2, §3, §4
(§11) 0.15 ml of a solution containing a proteolytic activity and a known inhibitor (concentration from 0.01 to 10 μg/ml) are added to the wells treated according to Example 2 or Example 2a and incubated for 2 hours at 37° C. […]
as §9
(§12) A YL 1/2 antibody solution (Amersham) diluted 1:1000 in PBS buffer is added to each well and incubated for 1 hour at room temperature. […] After 5-10 minutes, the reaction is stopped with H2 SO4 4 M. The colour is detected on a Titertek Multiscan MCC340-HK spectrophotometer reading the absorbance at 492 nm.

A further test has as its target T2, Renin (Homo sapiens, UniProt P00797).
T2 sequence (P00797 67-406): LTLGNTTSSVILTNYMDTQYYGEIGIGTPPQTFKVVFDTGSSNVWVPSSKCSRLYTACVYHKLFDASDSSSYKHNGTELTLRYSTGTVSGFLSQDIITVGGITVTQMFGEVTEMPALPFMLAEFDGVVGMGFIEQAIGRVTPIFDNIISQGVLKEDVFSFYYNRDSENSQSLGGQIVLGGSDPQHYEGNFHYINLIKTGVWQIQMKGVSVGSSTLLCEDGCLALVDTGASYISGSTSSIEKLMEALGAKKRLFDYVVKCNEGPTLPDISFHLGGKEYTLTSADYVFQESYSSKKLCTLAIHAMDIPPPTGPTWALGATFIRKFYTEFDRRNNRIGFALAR
As to the kind of experiment: Inhibition of renin, solid phase tubulin immunoassay, Table I. The procedure: as §1, §2, §3, §4, §11, §9, §12

In the next test the target is T3, Hiv-1 protease (Human immunodeficiency virus type 1 group M subtype B, UniProt P04585).
T3 construct: Hiv-1 protease
As to the kind of experiment: Inhibition of Hiv-1 protease, solid phase tubulin immunoassay, Table I. The protocol: as §1, §2, §3, §4, §11, §9, §12

The target in test [1] is Papain (Carica papaya, UniProt P00784). As to the kind of experiment: Inhibition of papain, solid phase tubulin immunoassay, Table I. The following applies: papain 0.25 μg/ml, 50 mM acetate pH 5.5, 5 mM cysteine, 2 hours at 37° C.; inhibitor 0.01 to 10 μg/ml; read-out: Concentration of inhibitor in the proteolytic solution which determines the 50% inhibition of the protease (converted). The procedure:
as §1, §2, §3, §4, §5, §6
(§13) Cysteine class: papain (0.25 μg/ml) and cathepsin B (10 μg/ml) in a 50 mM acetate buffer solution (pH=5.5) containing 5 mM cysteine.
as §8, §9, §10

The next test addresses Cathepsin B (Homo sapiens, UniProt P07858). As to the kind of experiment: Inhibition of cathepsin B, solid phase tubulin immunoassay, Table I. The protocol: as §1, §2, §3, §4, §11, §9, §12
The test system of test [2] is proteases of the cysteine class. As to the kind of experiment: Specificity for protease classes, solid phase tubulin immunoassay. The following applies: in words. The procedure: (§14) As mentioned above, the first step of the present assay is the contact of the supported tubulin or tubulin-like peptide with a solution containing a proteolytic activity as above described. By contacting solutions containing different proteolytic activities and a same inhibitor substance, it is possible to determine both the specificity of said inhibitor against the selected protease and the percentage of inhibition.
as §4, §5, §6, §13, §8, §9, §12

The test system of test [3] is proteases of the aspartic class. Described as above. The conditions noted are these: in words. The protocol:
as §14, §4, §5, §6
Aspartic class: pepsin (5 μg/ml), cathepsin D (5 μg/ml), renin (5 μg/ml) and Hiv-1 protease (5 μg/ml), in a 50 mM acetate buffer solution (pH=5.5) containing 0.01% Tween 20 (Pierce); […]
as §9, §12

The target in test [4] is T4, Papain (Carica papaya, UniProt P00784).
T4 sequence (P00784 whole entry, looked up): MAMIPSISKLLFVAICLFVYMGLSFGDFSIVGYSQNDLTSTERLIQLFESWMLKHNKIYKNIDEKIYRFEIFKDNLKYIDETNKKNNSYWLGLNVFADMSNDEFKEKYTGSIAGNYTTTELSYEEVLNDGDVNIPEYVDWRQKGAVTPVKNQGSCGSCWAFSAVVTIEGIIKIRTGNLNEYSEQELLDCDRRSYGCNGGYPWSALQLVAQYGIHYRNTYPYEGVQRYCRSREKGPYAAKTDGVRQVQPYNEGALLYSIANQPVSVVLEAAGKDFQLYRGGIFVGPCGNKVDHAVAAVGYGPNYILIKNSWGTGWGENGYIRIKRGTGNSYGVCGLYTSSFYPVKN
As to the kind of experiment: Inhibition of papain, solid phase tubulin immunoassay, Table I. The conditions noted are these: papain 0.25 μg/ml, 50 mM acetate pH 5.5, 5 mM cysteine, 2 hours at 37° C.; inhibitor 0.01 to 10 μg/ml. The procedure:
as §1, §2, §3, §4, §5, §6, §13, §8, §9, §10

The subject of test [5] is proteases of the serine class. As to the kind of experiment: Specificity for protease classes, solid phase tubulin immunoassay. The following applies: in words. The protocol:
as §14, §4, §5, §6
Serine class: trypsin (0.25 μg/ml), subtilisin (0.25 μg/ml), elastase (0.5 μg/ml) and cathepsin G (5 μg/ml), in a 20 mM solution of Tris-hydroxymethyl-aminomethanchloride (TRIS) (pH=7.4); […]
as §9, §12

Like-named read-outs stand apart in the source and are kept apart here. Square brackets hold non-standard residues; d marks the D form. Peptide text beside a SMILES is read from it. * marks the point of attachment. Sta = CC(C)C[C@H](N)[C@@H](O)CC(=O)O; Isovaleryl = CC(C)CC(=O)*

Chain of Pepsin (P00791 60-385): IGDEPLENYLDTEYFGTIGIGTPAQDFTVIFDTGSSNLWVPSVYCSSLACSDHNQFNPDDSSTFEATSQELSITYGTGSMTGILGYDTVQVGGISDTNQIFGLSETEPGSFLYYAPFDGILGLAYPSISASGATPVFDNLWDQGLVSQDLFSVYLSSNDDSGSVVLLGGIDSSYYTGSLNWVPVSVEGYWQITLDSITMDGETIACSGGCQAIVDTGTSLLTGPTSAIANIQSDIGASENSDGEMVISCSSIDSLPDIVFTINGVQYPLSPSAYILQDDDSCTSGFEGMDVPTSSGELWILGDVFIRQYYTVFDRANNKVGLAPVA
Chain of Cathepsin D (P07339 65-412, species assumed): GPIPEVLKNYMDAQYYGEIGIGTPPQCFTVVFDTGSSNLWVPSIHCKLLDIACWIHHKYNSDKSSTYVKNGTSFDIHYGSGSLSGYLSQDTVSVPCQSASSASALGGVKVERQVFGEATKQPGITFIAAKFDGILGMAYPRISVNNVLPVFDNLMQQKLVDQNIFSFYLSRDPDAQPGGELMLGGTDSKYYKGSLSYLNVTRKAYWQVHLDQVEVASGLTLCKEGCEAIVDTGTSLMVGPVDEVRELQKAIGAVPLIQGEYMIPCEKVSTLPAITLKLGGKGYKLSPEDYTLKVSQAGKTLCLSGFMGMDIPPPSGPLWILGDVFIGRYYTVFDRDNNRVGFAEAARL

As to `CC(=O)N[C@@H](CC(C)C)C(=O)N[C@@H](CC(C)C)C(=O)N[C@H](C=O)CCCNC(=N)N` [Leupeptin], the “Concentration of inhibitor in the proteolytic solution which determines the 50% inhibition of the protease” value with Trypsin, in the test with Subtilisin and at Elastase was “n.i. (no inhibition)” throughout. Besides, the IC50 was greater than 23.4 µM on Cathepsin G; greater than 23.4 µM against Pepsin; greater than 23.4 µM at Cathepsin D; greater than 23.4 µM against Renin; greater than 23.4 µM against Hiv-1 protease; 0.117 µM at Papain [1]. The compound further showed an IC50 at Cathepsin B of 5.86 µM. Besides, the “specific inhibition of proteases of the cysteine class” value in test [2] was “specific inhibition”.
Consider `CC(C)CC(=O)N[C@H](C(=O)N[C@H](C(=O)N[C@@H](CC(C)C)[C@@H](O)CC(=O)N[C@@H](C)C(=O)N[C@@H](CC(C)C)[C@@H](O)CC(=O)O)C(C)C)C(C)C` [Pepstatin] (Isovaleryl-VV[Sta]A[Sta]-OH), for which the “Concentration of inhibitor in the proteolytic solution which determines the 50% inhibition of the protease” value in the test with Trypsin, with Subtilisin and at Elastase was “n.i. (no inhibition)” throughout. The IC50 at Cathepsin G is greater than 14.6 µM; against Pepsin (50% inhibition of pepsin, under the test conditions), roughly 0.02 µM; on Papain [1], greater than 14.6 µM. In test [3], the “specific inhibition of proteases of the aspartic class” value is given as “specific inhibitor for the proteases of the aspartic class”.
Take “α-anti trypsin: inhibitor of the serine class”: the “Concentration of inhibitor in the proteolytic solution which determines the 50% inhibition of the protease” value with Trypsin was 1.0 µg/mL; in the test with Subtilisin, 7.5 µg/mL; at Elastase, 1.0 µg/mL; with Cathepsin G (cathepsin G 5 μg/ml, 20 mM TRIS pH 7.4, 2 hours at 37° C., inhibitor 0.01 to 10 μg/ml), “n.i. (no inhibition)”; with Pepsin (pepsin 5 μg/ml, 50 mM acetate pH 5.5, 0.01% Tween 20, 2 hours at 37° C., inhibitor 0.01 to 10 μg/ml), “n.i. (no inhibition)”; in the test with Cathepsin D (cathepsin D 5 μg/ml, 50 mM acetate pH 5.5, 0.01% Tween 20, 2 hours at 37° C., inhibitor 0.01 to 10 μg/ml) it was “n.i. (no inhibition)”. For the same compound, the “Concentration of inhibitor in the proteolytic solution which determines the 50% inhibition of the protease” value in the test with Renin (renin 5 μg/ml, 50 mM acetate pH 5.5, 0.01% Tween 20, 2 hours at 37° C., inhibitor 0.01 to 10 μg/ml) is on record as “n.i. (no inhibition)”; in the test with Hiv-1 protease (Hiv-1 protease 5 μg/ml, 50 mM acetate pH 5.5, 0.01% Tween 20, 2 hours at 37° C., inhibitor 0.01 to 10 μg/ml), “n.i. (no inhibition)”; with Papain [4], “n.i. (no inhibition)”; with Cathepsin B (cathepsin B 10 μg/ml, 50 mM acetate pH 5.5, 5 mM cysteine, 2 hours at 37° C., inhibitor 0.01 to 10 μg/ml), “n.i. (no inhibition)”. In addition, the “specific inhibition of proteases of the serine class” value in [5] is on record as “specific inhibition”.

These data come from patent US6159746A, “Solid phase immunoassay to detect inhibitors of proteolytic enzymes” (Gruppo Lepetit S.p.A., priority 1994, dated 2000).
